Assay results taken from patent US5763430A, “Method of treating a viral infection by administering a steroid compound” (priority 1995, dated 1998).
≈ marks a conversion by molar mass, not a printed value. Where two headings read alike, the source gives them in different places.

Assays:
Test in all cases: antibiotic activity (MIC)
Type in all cases: cell-based
E. coli = details: Escherichia coli
Text: (§1) Thus, it is possible to achieve an antimicrobial steroid with or without squalamine-like pharmacological activity.

S. aureus = details: Staphylococcus aureus
Text: as §1

P. aerug = details: P. aerug; read-out: MIC
Text: as §1

C. albicans = details: Candida albicans; C. albicans; read-out: MIC
Text: as §1

Row | SMILES | MIC (E. coli; E. coli, read-out: MIC) [µg/mL] | MIC (S. aureus; S. aureus, read-out: MIC) [µg/mL] | MIC (P. aerug) [µg/mL] | MIC (C. albicans) [µg/mL] | MIC (E. coli) [µg/mL] | MIC (S. aureus) [µg/mL]
1 | CC(C)CCC[C@@H](C)[C@H]1CC[C@H]2[C@@H]3CC[C@H]4C[C@@H](NCCCNCCCCN)CC[C@]4(C)[C@H]3CC[C@]12C [Compound 303] | 128 to 256 (≈ 248 to 496 µM) | 8 (≈ 15.5 µM) | 128 (≈ 248 µM) | 256 (≈ 496 µM) |  | 
2 | CC(C)CCC[C@@H](C)[C@H]1CC[C@H]2[C@@H]3CC[C@H]4C[C@H](NCCCNCCCCN)CC[C@]4(C)[C@H]3CC[C@]12C [Compound 304] | 128 (≈ 248 µM) | 2 to 4 (≈ 3.88 to 7.75 µM) | 128 (≈ 248 µM) | 128 (≈ 248 µM) |  | 
3 | C[C@H](CCC(=O)O)[C@H]1CC[C@H]2[C@@H]3CC[C@H]4C[C@H](NCCCNCCCCN)CC[C@]4(C)[C@H]3CC[C@]12C [Compound 318] | 32 (≈ 63.5 µM) | 128 (≈ 254 µM) | 64 (≈ 127 µM) | > 256 |  | 
4 | CC(C)CCC[C@@H](C)[C@H]1CC[C@H]2[C@@H]3CC[C@H]4C[C@H](NCCCNCCCCNCCCN)CC[C@]4(C)[C@H]3CC[C@]12C [Compound 354] | 64 to 128 (≈ 112 to 223 µM) | 8 (≈ 14 µM) | 64 (≈ 112 µM) | 16 to 32 (≈ 27.9 to 55.8 µM) |  | 
5 | COC(=O)CC[C@@H](C)[C@H]1CC[C@H]2[C@@H]3[C@H](O)C[C@@H]4C[C@@H](NCCCNCCCCN)CC[C@]4(C)[C@H]3CC[C@]12C [Compound 355] | 256 (≈ 480 µM) | 64 (≈ 120 µM) | > 256 | 256 (≈ 480 µM) |  | 
6 | COC(=O)CC[C@@H](C)[C@H]1CC[C@H]2[C@@H]3[C@H](O)C[C@@H]4C[C@H](NCCCNCCCCN)CC[C@]4(C)[C@H]3CC[C@]12C [Compound 356] | 32 to 64 (≈ 59.9 to 120 µM) | 4 (≈ 7.49 µM) | 64 (≈ 120 µM) | 64 (≈ 120 µM) |  | 
7 | COC(=O)CC[C@@H](C)[C@H]1CC[C@H]2[C@@H]3[C@H](O)C[C@H]4C[C@@H](NCCCNCCCCN)CC[C@]4(C)[C@H]3CC[C@]12C [Compound 380] | 32 (≈ 59.9 µM) | 4 to 8 (≈ 7.49 to 15 µM) | 64 (≈ 120 µM) | 32 (≈ 59.9 µM) |  | 
8 | C[C@H](CCC(=O)O)[C@H]1CC[C@H]2[C@@H]3[C@H](O)C[C@H]4C[C@@H](NCCCNCCCCN)CC[C@]4(C)[C@H]3CC[C@]12C [Compound 381] | 64 (≈ 123 µM) | 32 (≈ 61.6 µM) | 32 (≈ 61.6 µM) | 128 (≈ 246 µM) |  | 
9 | C[C@H](CCC(=O)O)[C@H]1CC[C@H]2[C@@H]3[C@H](O)C[C@H]4C[C@H](NCCCNCCCCN)CC[C@]4(C)[C@H]3CC[C@]12C [Compound 382] | 64 (≈ 123 µM) | 16 (≈ 30.8 µM) | 32 (≈ 61.6 µM) | 32 (≈ 61.6 µM) |  | 
10 | CC(C)C(O)CC[C@@H](C)[C@H]1CC[C@H]2[C@@H]3[C@H](O)C[C@H]4C[C@H](NCCCNCCCCN)CC[C@]4(C)[C@H]3CC[C@]12C (stereo partly drawn) [Compound 387, 3α-(1,5,10-Triazadecyl) cholestan-7α,24.xi.-diol] | 128 (≈ 234 µM) | 16 to 32 (≈ 29.2 to 58.4 µM) | 256 (≈ 467 µM) | 64 (≈ 117 µM) |  | 
11 | CC(C)C(CC[C@@H](C)[C@H]1CC[C@H]2[C@@H]3[C@H](O)C[C@H]4C[C@H](NCCCNCCCCN)CC[C@]4(C)[C@H]3CC[C@]12C)OS(=O)(=O)O (stereo partly drawn) [Compound 388, 3-Episqualamine] | 4 to 8 (≈ 6.37 to 12.7 µM) | 2 to 4 (≈ 3.18 to 6.37 µM) | 16 (≈ 25.5 µM) | 16 (≈ 25.5 µM) |  | 
12 | CC(C)CCC[C@@H](C)[C@H]1CC[C@H]2[C@@H]3CC[C@H]4C[C@H](NCCCN5CCCCN=C5N)CC[C@]4(C)[C@H]3CC[C@]12C [Compound 393] |  |  | > 256 | 32 (≈ 59.2 µM) | > 256 | 3 (≈ 5.55 µM)
13 | COC(=O)CC[C@@H](C)[C@H]1CC[C@H]2[C@@H]3[C@H](O)C[C@H]4C[C@H](NCCCNCCCCN)CC[C@]4(C)[C@H]3CC[C@]12C [Compound 394] | 64 (≈ 120 µM) | 4 (≈ 7.49 µM) | 64 (≈ 120 µM) | 32 (≈ 59.9 µM) |  | 
14 | COC(=O)CC[C@@H](C)[C@H]1CC[C@H]2[C@@H]3[C@H](O)C[C@H]4CC(NCCCNCCCCNCCCN)CC[C@]4(C)[C@H]3CC[C@]12C (stereo partly drawn) [Compound 395] | 32 (≈ 54.2 µM) | 4 (≈ 6.77 µM) | 64 (≈ 108 µM) | 64 (≈ 108 µM) |  | 
15 | COC(=O)CC[C@@H](C)[C@H]1CC[C@H]2[C@@H]3[C@H](O)C[C@H]4C[C@@H](NCCCNCCCCNCCCN)CC[C@]4(C)[C@H]3CC[C@]12C [Compound 396] | 64 (≈ 108 µM) | 2 to 4 (≈ 3.38 to 6.77 µM) | 128 (≈ 217 µM) | 16 (≈ 27.1 µM) |  | 
